Results: patent publication US7459481B2, “Stimulation of CPT-1 as a means to reduce weight” (The Johns Hopkins University School of Medicine Licensing …, priority 2002, dated 2008)

What was measured:
CPT-1 [1] = target: T1, CPT-1 (Homo sapiens, UniProt P50416); test: CPT-1 activity assay in MCF-7 cells; assay type: cell-based
T1 construct: endogenous in cells; host or cells: MCF-7 human breast cancer cells
T1 sequence (P50416 1-773): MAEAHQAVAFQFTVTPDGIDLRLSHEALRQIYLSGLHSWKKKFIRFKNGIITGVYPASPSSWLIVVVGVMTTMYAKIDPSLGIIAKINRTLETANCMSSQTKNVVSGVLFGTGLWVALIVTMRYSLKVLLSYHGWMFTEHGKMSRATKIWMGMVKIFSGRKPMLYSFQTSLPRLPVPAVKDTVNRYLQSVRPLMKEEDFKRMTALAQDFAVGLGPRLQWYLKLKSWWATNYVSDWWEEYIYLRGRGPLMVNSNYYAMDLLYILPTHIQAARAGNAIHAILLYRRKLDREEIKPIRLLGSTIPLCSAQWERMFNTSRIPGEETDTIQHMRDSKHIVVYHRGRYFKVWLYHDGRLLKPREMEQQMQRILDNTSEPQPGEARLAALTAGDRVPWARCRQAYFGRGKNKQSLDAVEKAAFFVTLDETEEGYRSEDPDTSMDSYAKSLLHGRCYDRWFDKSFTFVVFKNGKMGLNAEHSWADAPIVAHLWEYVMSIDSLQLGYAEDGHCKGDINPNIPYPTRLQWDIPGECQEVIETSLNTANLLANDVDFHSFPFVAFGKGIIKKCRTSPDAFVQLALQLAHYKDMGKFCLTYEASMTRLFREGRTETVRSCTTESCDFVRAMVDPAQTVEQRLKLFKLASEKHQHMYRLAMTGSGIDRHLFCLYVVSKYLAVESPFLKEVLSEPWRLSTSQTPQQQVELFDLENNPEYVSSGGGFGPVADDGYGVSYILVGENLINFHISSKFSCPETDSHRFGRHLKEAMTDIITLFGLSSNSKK
Procedure: (§1) CPT-1 activity was assayed in MCF-7 cells by the following published procedure: MCF-7 cells were plated in DMEM with 10% fetal bovine serum at 10^6 cells in 24-well plates in triplicate. Following overnight incubation at 37° C., the medium was removed and replaced with 700 μl of assay medium consisting of: 50 mM imidazole, 70 mM KCl, 80 mM sucrose, 1 mM EGTA, 2 mM MgCl2, 1 mM DTT, 1 mM KCN, 1 mM ATP, 0.1% fatty acid free bovine serum albumin, 70 μM palmitoyl-CoA, 0.25 μCi [methyl-^14C]L-carnitine, 40 μg digitonin with or without 20 μM malonyl-CoA. After incubation for 6 minutes at 37° C., the reaction was stopped by the addition of 500 μl of ice-cold 4 M perchloric acid. Cells were then harvested and centrifuged at 13,000×g for 5 min. The pellet was washed with 500 μl ice cold 2 mM perchloric acid and centrifuged again. The resulting pellet was resuspended in 800 μl dH2O and extracted with 150 μl of butanol. The butanol phase was counted by liquid scintillation and represents the acylcarnitine derivative.
MCF-7 cells were treated with C75 at 10 or 20 μg/mL for 1 hr before CPT-1 activity was assayed. The assay was performed with the C75 and malonyl-CoA concentrations indicated (“M” indicates malonyl-CoA at 20 uM). Malonyl-CoA treatment alone caused a 46% reduction in CPT-1 activity similar to the previous experiment (see FIG. 2; p=0.02, two-tailed t-test, Prism 3.0). The level of malonyl-CoA inhibition of the CPT-1 activity is consistent with the activity of the liver isoform of CPT-1 in MCF-7 cells. The Ki of malonyl-CoA for the liver isoform of CPT-1 is ˜7 μM while the Ki for the muscle isoform of CPT-1 is 0.07 μM. Thus, MCF-7 cells express predominantly the liver isoform of CPT-1 (consistent with the immunoblot analysis).
(§2) FAS activity was measured by monitoring the malonyl-CoA dependent oxidation of NADPH spectrophotometrically at OD340 in 96-well plates, as described in International Patent Publication WO 2004/005277. The IC50 for the compounds against FAS was determined by plotting the change in OD340 against time for each inhibitor concentration tested and determining the rate of change by linear regression. The concentration of a particular compound yielding 50% inhibition of the rate for FAS in the absence of the compound is the IC50. Stimulation of CPT-1 activity was measured as described in Example 2, except the cells were preincubated with the compound for 2 hours at the concentrations indicated in the table. Stimulation of Fatty acid oxidation was determined as described in Example 1 for cells preincubated with the compounds at the concentrations indicated in the table.

FAS = FAS (Homo sapiens, UniProt P49327); test: FAS activity, malonyl-CoA dependent oxidation of NADPH at OD340; assay type: biochemical
FAS, sequence (P49327 whole entry): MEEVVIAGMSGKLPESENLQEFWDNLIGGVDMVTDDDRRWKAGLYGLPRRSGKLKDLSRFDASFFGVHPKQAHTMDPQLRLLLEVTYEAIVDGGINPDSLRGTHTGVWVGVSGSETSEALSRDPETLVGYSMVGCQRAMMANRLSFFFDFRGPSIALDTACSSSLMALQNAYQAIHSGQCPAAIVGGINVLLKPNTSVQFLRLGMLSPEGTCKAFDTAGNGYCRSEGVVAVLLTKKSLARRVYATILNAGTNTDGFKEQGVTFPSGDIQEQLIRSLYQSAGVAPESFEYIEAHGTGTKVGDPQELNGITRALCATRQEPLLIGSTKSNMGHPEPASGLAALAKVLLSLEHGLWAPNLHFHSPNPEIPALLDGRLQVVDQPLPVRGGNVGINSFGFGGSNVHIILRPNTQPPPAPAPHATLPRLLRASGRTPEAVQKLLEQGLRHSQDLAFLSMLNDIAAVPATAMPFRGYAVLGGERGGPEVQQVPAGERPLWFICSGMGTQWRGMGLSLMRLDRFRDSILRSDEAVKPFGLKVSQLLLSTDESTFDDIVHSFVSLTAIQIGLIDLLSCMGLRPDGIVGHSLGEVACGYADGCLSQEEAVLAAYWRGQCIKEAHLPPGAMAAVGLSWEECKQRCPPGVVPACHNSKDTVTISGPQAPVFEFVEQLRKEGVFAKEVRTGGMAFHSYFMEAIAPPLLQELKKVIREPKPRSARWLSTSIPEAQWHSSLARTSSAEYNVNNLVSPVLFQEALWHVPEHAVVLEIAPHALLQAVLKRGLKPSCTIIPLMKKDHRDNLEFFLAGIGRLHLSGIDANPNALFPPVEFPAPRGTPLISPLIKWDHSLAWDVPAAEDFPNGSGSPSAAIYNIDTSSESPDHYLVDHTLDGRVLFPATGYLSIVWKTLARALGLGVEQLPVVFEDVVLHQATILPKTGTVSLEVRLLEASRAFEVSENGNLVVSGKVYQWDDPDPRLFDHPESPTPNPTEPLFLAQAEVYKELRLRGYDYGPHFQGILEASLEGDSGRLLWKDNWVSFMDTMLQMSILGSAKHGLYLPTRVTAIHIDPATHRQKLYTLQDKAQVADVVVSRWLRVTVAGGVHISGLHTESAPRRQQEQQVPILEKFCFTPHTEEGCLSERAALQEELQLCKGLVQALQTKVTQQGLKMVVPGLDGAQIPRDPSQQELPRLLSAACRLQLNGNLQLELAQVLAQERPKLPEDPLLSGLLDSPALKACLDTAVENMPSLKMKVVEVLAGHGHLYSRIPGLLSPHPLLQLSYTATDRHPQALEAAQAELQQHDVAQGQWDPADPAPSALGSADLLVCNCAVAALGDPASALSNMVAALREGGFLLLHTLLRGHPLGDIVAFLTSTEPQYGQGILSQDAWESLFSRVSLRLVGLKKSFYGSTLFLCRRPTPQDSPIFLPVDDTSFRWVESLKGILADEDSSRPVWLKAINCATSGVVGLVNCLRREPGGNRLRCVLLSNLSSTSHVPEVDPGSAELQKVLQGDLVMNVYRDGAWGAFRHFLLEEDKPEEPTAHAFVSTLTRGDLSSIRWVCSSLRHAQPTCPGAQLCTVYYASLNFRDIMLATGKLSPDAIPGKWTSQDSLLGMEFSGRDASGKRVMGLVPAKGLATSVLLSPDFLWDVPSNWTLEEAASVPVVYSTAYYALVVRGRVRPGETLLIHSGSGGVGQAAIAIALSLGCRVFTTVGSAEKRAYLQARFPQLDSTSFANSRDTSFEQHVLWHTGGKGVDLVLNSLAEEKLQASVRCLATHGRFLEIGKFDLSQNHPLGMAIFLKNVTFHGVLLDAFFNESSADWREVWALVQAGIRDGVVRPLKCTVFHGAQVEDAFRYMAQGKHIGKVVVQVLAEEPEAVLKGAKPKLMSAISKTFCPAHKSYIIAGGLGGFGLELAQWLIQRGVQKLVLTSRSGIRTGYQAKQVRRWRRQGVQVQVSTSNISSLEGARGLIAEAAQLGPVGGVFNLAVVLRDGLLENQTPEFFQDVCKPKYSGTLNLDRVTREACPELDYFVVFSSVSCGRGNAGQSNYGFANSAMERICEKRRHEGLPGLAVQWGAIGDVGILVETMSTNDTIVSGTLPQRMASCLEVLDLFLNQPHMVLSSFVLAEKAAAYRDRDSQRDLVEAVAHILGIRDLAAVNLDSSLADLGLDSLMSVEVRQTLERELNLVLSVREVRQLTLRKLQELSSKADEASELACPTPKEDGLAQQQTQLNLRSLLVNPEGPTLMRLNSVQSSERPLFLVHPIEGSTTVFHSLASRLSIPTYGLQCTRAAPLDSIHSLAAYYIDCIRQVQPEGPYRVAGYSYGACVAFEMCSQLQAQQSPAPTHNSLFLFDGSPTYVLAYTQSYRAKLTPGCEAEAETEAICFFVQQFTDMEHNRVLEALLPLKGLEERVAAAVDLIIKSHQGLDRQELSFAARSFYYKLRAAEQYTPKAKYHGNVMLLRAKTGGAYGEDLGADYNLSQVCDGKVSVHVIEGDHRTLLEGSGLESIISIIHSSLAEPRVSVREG
Procedure: as §2

CPT-1 [2] = test: CPT-1 activity in differentiated 3T3-L1 adipocytes; assay type: cell-based, mouse; conditions: 2 hours
Procedure: as §1, with “The pellet was washed with 500 μl ice cold 2 mM perchloric acid and centrifuged again. The resulting pellet was resuspended in 800 μl dH2O and extracted with 150 μl of butanol.” left out
To expand the study of effects of C75 on fatty acid metabolism beyond cancer cell lines to normal adipocytes, differentiated (non-transformed) mouse NIH 3T3-L1 adipocytes were used in assays similar to those performed with the MCF-7 cells. […] The differentiated cells were ready to be used for experiments in 7-10 days.
(§3) C75 increased CPT-1 activity and fatty acid metabolism in the NIH 3T3-L1 cells differentiated into adipocytes. […] CPT-1 activity, fatty acid oxidation, and total cellular ATP were measured as described in Examples 2, 1, and 4. […]

3T3-L1 adipocytes = test: Total cellular ATP in differentiated 3T3-L1 adipocytes; assay type: cell-based, mouse; conditions: 20 μg/ml or greater, 2 hours, FIG. 7
Procedure: 1×10^5 MCF-7 cells were plated in 96 well plates. Cells were treated with C75 or vehicle. After 2 hours, ATP was measured using a luciferase assay using the ATP Bioluminescence Kit CLS II (Roche) following the manufacturer's protocol. Plates were read by a Perkin Elmer Wallac Victor^2 1420 luminometer. […] Similar results were obtained after 1 hr incubation with C75. Thus, cellular energy production increased as a result of C75 increasing fatty acid oxidation.
To expand the study of effects of C75 on fatty acid metabolism beyond cancer cell lines to normal adipocytes, differentiated (non-transformed) mouse NIH 3T3-L1 adipocytes were used in assays similar to those performed with the MCF-7 cells. 3T3-L1 cells were obtained from the American Type Culture Collection, and cells were cultured in DMEM with high glucose (4.5 g/l ) (Gibco 12100-046) with 10% fetal calf serum and Biotin (Sigma B-4639) 0.008 g/L. Differentiation was initiated three days after the cells were confluent, when the standard culture medium was replaced with differentiation medium. […] The differentiated cells were ready to be used for experiments in 7-10 days.
as §3

What does the source list for `C=C1C(=O)OC(CCCCCCCC)C1C(=O)O` (stereo not drawn) [Compound C75]?
CPT-1 Stimulation (% Control) (CPT-1 [1]; 20 μg/mL, cells preincubated 2 hours): 125 % Control; CPT-1 activity, % of control (CPT-1 [1]; MCF-7, 20 μg/ml 1 hr before assay, FIG. 4): 166 % of control; CPT-1 activity, % of control (CPT-1 [1]; MCF-7, 20 μg/ml for one hour before assay, no C75 in the assay buffer, FIG. 3): 158 % of control; CPT-1 stimulation after C75 removed from buffer and malonyl-CoA 20 μM added (CPT-1 [1]; MCF-7, C75 20 μg/ml one hour pretreatment, FIG. 3): stimulatory activity is lost; difference in CPT-1 activity between C75 and C75 plus malonyl-CoA (CPT-1 [1]; MCF-7, C75 10 or 20 μg/mL 1 hr, malonyl-CoA 20 uM, FIG. 2): no statistically significant difference; stimulated CPT-I activity (CPT-1 [1]; MCF-7 cells in vitro): 150-160%; FAS Inhibition (IC50) (FAS): 55 µg/mL; increase in CPT-1 activity above control (CPT-1 [2]): 377%; levels of ATP (3T3-L1 adipocytes): significantly increased
